Common to all, as to test: growth of human tumour cells (NCI), 48 h
In assay [1] the test system is HCT-15 colon.
Assay [2] concerns MCF7 breast.
Assay [3] has as its system OVCAR-8 ovarian.
Assay [4] has as its system RXF 393 renal.
The test system of assay [5] is SF-295 CNS.
The subject of assay [6] is SK-MEL-28 melanoma.
In assay [7] the test system is SNB-75 CNS.
The test system of assay [8] is UACC-257 melanoma.
The subject of assay [9] is UACC-62 melanoma.
Assay [10] has as its system MOLT-4 leukemia.

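Briefly, cells in 96-well plates were exposed to five compound concentrations for 48 h, and endpoints were estimated by linear interpolation. At the GI50, growth is halved. TGI denotes the concentration required for complete inhibition of growth.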

For the molecule `Cc1cc(N(CCNc2ccnc3cc(Cl)ccc23)Cc2ccco2)nc(Cl)n1`, the GI50 in [1] was 1640 nM; in assay [2], 1650 nM; in [3], 2060 nM; in [4] it was 1270 nM; in assay [5], 1510 nM; in [6], 1740 nM. Besides, the results for the GI50 in [7], in assay [8] and in assay [9] were 1470 nM, 1900 nM and 1780 nM, respectively. Further, the TGI was 3.19 µM in [1]; 3.32 µM in assay [2]; 4.42 µM in assay [3]; 2.68 µM in assay [4]; 3 µM in [5]; 3.38 µM in assay [6]. The TGI turned out to be 2.97 µM in [7], 3.68 µM in assay [8] and 3.38 µM in [9].
With `Cn1ccnc1C(=O)/C=C/c1ccccc1`, the GI50 is 2770 nM in [1]; 1270 nM in assay [2]; 3350 nM in [10]; 2590 nM in assay [3]; 11400 nM in assay [5]; 2610 nM in assay [6]. Further, the GI50 in assay [7] was 2550 nM; in assay [8], 4070 nM; in [9], 7460 nM. Further, the TGI amounted to 13.8 µM in assay [1]; 6.77 µM in assay [2]; 15.6 µM in assay [10]; 6.94 µM in [3]; 29.1 µM in [5]; 5.97 µM in assay [6]. In addition, the TGI came out at 6.54 µM in assay [7], 16.2 µM in assay [8] and 21.3 µM in [9].
For `CC(=Nc1ccccc1)C1=C(O)C(Cc2ccccc2)NC1=O` (configuration not stated), the GI50 in [1] is 42.5 nM; in assay [2] it was 36.7 nM; in assay [10], 75.3 nM; in [3], 94.5 nM; in assay [5] it was 23.8 nM; in assay [6], 71.2 nM. Besides, the GI50 in [7] was 24.6 nM; in assay [8], > 100000 nM; in assay [9], 40.4 nM. Besides, the TGI in assay [1] is > 48.1 µM; in assay [2], > 100 µM; in assay [10] it was > 100 µM; in [3], > 100 µM; in assay [5], 0.0721 µM; in [6], > 100 µM. For the same molecule, the values for the TGI in assay [7], in assay [8] and in assay [9] were 0.0788 µM, > 100 µM and > 100 µM, respectively.
Regarding `COc1cc(OC)c(/C=C/c2cnc3ccccc3n2)c(OC)c1`, the TGI in assay [1], in [2], in assay [3], in assay [4], in assay [5] and in assay [6] was > 10 µM in each case. In addition, the TGI in assay [7], in assay [8] and in assay [9] was > 10 µM each time.
Take `Nc1nc(-c2ccccc2)nc2c1[n+]([O-])c1ccccc1[n+]2[O-]`: the TGI in assay [1], in [2], in assay [3], in [4], in assay [5] and in assay [6] was > 100 µM throughout. Further, the TGI in assay [8] and in assay [9] was > 100 µM in each case.
Take `C=C1CCC2C(C)(C)CCC[C@]2(C)[C@H]1CO` (some centres not stated): the GI50 in assay [1] was 56900 nM; in assay [2] it was 49100 nM; in assay [10], 73200 nM; in assay [3], 76100 nM; in assay [4], > 100000 nM; in assay [5], > 100000 nM. Moreover, the GI50 in assay [6], in assay [8] and in [9] was > 100000 nM throughout. For the same molecule, the TGI in assay [1], in [2], in assay [10], in assay [3], in assay [4] and in assay [5] was > 100 µM in each case. For the same molecule, the TGI in assay [6], in assay [8] and in [9] was > 100 µM each time.
With `C=C1CC/C=C(\C)C(=O)C[C@@H]2[C@@H]1CC2(C)C`, the TGI in assay [1] was 3.23 µM; in [2] it was 5.94 µM; in assay [3], 29.7 µM; in assay [4] it was 4.33 µM; in [5], 33.4 µM; in assay [6] it was 6.34 µM. The TGI in assay [7] worked out at 26.3 µM; in [8] it was 16 µM; in assay [9] it was 24.2 µM.
For the molecule `COc1cc(Nc2ccnc(NCCCNc3ccnc4cc(Cl)ccc34)n2)cc(OC)c1`, the GI50 in [1] is 1510 nM; in assay [2] it was 1280 nM; in assay [10] it was 2230 nM; in [3] it was 2070 nM; in [5], 1370 nM; in assay [6], 1660 nM. The GI50 was 1310 nM in [7], 1840 nM in assay [8] and 1670 nM in assay [9]. For the same molecule, the TGI in assay [1] was determined as 3.09 µM; in assay [2], 3 µM; in [10], 6.39 µM; in [3] it was 5.65 µM; in assay [5], 2.78 µM; in [6], 3.09 µM. Also, the TGI worked out at 2.58 µM in assay [7], 3.44 µM in [8] and 3.13 µM in assay [9].
Turning to `CN(C)c1ccc(Nc2cc(-c3cccc(OC(F)(F)F)c3)nc3ccc(N4CCCC4)cc23)cc1`, the GI50 was 1750 nM in assay [1]; 1860 nM in assay [2]; 1660 nM in assay [4]; 1830 nM in assay [5]; 1790 nM in assay [6]; 1640 nM in assay [7]. The GI50 in assay [8] is 1750 nM; in assay [9], 1800 nM. The TGI in [1] was 3.53 µM; in assay [2], 4.61 µM; in assay [4], 3.47 µM; in assay [5], 3.57 µM; in [6] it was 3.3 µM; in [7] it was 3.12 µM. Also, the values for the TGI in assay [8] and in [9] were 3.35 µM and 3.29 µM, respectively.
